Laboratory results as given in ChEMBL document CHEMBL4346657, “Anticancer activity, dual prooxidant/antioxidant effect and apoptosis induction profile of new bichalcophene-5-carboxamidines” (Eur J Med Chem, 2019).
pIC50: −log10 of the molar value.

Experiments:
HCT-15 = assay: Antiproliferative activity against human HCT15 cells assessed as growth inhibition after 48 hrs by sulforhodamine B assay; type: functional; details: HCT-15, 48 h
TK-10 = assay: Antiproliferative activity against human TK10 cells assessed as growth inhibition after 48 hrs by sulforhodamine B assay; type: functional; details: TK-10, 48 h
HCT-116 = assay: Induction of apoptosis in human HCT116 cells assessed as increase in caspase 3 mRNA expression at 100 nM after 6 hrs hrs by SYBR green dye-based qRT-PCR analysis relative to control; type: functional
LOX IMVI = assay: Antiproliferative activity against human LOXIMVI cells assessed as growth inhibition after 48 hrs by sulforhodamine B assay; type: functional
[1] = Haemolytic activity in human erythrocytes assessed as induction of hemolysis at 2.5 mM after 30 mins relative to H202; type: cell-based, Erythrocyte; details: erythrocytes, read-out: Activity
UACC-257 = assay: Antiproliferative activity against human UACC257 cells assessed as growth inhibition after 48 hrs by sulforhodamine B assay; type: functional; details: UACC-257, 48 h
[2] = Antioxidant activity assessed as DPPH radical scavenging activity incubated in dark for 30 mins by spectrophotometric method relative to ascorbic acid; type: functional
OVCAR-3 = assay: Antiproliferative activity against human OVCAR3 cells assessed as growth inhibition after 48 hrs by sulforhodamine B assay; type: functional; details: OVCAR-3, 48 h
HCC 2998 = assay: Antiproliferative activity against human HCC2998 cells assessed as growth inhibition after 48 hrs by sulforhodamine B assay; type: functional; details: HCC 2998, 48 h
U-251 = assay: Antiproliferative activity against human U251 cells assessed as growth inhibition after 48 hrs by sulforhodamine B assay; type: functional; details: U-251, 48 h
RXF 393 = assay: Antiproliferative activity against human RXF393 cells assessed as growth inhibition after 48 hrs by sulforhodamine B assay; type: functional; details: RXF 393, 48 h
K562 = assay: Antiproliferative activity against human K562 cells assessed as growth inhibition after 48 hrs by sulforhodamine B assay; type: functional, cell-based; details: K562, 48 h, read-out: IC50
KM12 = assay: Antiproliferative activity against human KM12 cells assessed as growth inhibition after 48 hrs by sulforhodamine B assay; type: functional; details: KM12, 48 h
Erythrocyte [3] = assay: Haemolytic activity in human erythrocytes assessed as induction of hemolysis at 1.25 mM after 30 mins relative to H202; type: cell-based; details: erythrocyte, 0.5 h, 1250 µM
OVCAR-4 = assay: Antiproliferative activity against human OVCAR4 cells assessed as growth inhibition after 48 hrs by sulforhodamine B assay; type: functional; details: OVCAR-4, 48 h
A498 = assay: Antiproliferative activity against human A498 cells assessed as growth inhibition after 48 hrs by sulforhodamine B assay; type: functional; details: A498, 48 h
PC-3 = assay: Antiproliferative activity against human PC3 cells assessed as growth inhibition after 48 hrs by sulforhodamine B assay; type: functional; details: PC-3, 48 h
MOLT-4 = assay: Antiproliferative activity against human MOLT4 cells assessed as growth inhibition after 48 hrs by sulforhodamine B assay; type: functional; details: MOLT-4, 48 h
BT-549 = assay: Antiproliferative activity against human BT549 cells assessed as growth inhibition after 48 hrs by sulforhodamine B assay; type: functional; details: BT-549, 48 h
NCI/ADR-RES = assay: Antiproliferative activity against human NCI-ADR-RES cells assessed as growth inhibition after 48 hrs by sulforhodamine B assay; type: functional
T47D = assay: Antiproliferative activity against human T47D cells assessed as growth inhibition after 48 hrs by sulforhodamine B assay; type: functional
[4] = Antioxidant activity assessed as DPPH radical scavenging activity incubated in dark for 30 mins by spectrophotometric method relative to control; type: functional; design: concentration or dose not given beside the values
MDA-MB-468 = assay: Antiproliferative activity against human MDA-MB-468 cells assessed as growth inhibition after 48 hrs by sulforhodamine B assay; type: functional; details: MDA-MB-468, 48 h
NCI-H23 = assay: Antiproliferative activity against human NCI-H23 cells assessed as growth inhibition after 48 hrs by sulforhodamine B assay; type: functional; details: NCI-H23, 48 h
OVCAR-8 = assay: Antiproliferative activity against human OVCAR8 cells assessed as growth inhibition after 48 hrs by sulforhodamine B assay; type: functional; details: OVCAR-8, 48 h
HOP-62 = assay: Antiproliferative activity against human HOP62 cells assessed as growth inhibition after 48 hrs by sulforhodamine B assay; type: functional; details: HOP-62, 48 h
SF-539 = assay: Antiproliferative activity against human SF539 cells assessed as growth inhibition after 48 hrs by sulforhodamine B assay; type: functional; details: SF-539, 48 h
HOP-92 = assay: Antiproliferative activity against human HOP92 cells assessed as growth inhibition after 48 hrs by sulforhodamine B assay; type: functional; details: HOP-92, 48 h
HT-29 = assay: Antiproliferative activity against human HT-29 cells assessed as growth inhibition after 48 hrs by sulforhodamine B assay; type: functional; details: HT-29, 48 h
WI-38 = assay: Cytotoxicity activity against human WI38 cells assessed as reduction in cell viability measured after 48 hrs by MTT assay; type: cell-based; details: WI-38, 48 h
UO-31 = assay: Antiproliferative activity against human UO31 cells assessed as growth inhibition after 48 hrs by sulforhodamine B assay; type: functional; details: UO-31, 48 h
A549 = assay: Antiproliferative activity against human A549/ATCC cells assessed as growth inhibition after 48 hrs by sulforhodamine B assay; type: functional; details: A549, 48 h
Erythrocyte [5] = assay: Haemolytic activity in human erythrocytes assessed as induction of hemolysis at 0.625 mM after 30 mins relative to H202; type: cell-based; details: erythrocyte, 0.5 h, 625 µM
CAKI-1 = assay: Antiproliferative activity against human CAKI-1 cells assessed as growth inhibition after 48 hrs by sulforhodamine B assay; type: functional; details: CAKI-1, 48 h
SR = assay: Antiproliferative activity against human SR cells assessed as growth inhibition after 48 hrs by sulforhodamine B assay; type: functional
SNB-75 = assay: Antiproliferative activity against human SNB75 cells assessed as growth inhibition after 48 hrs by sulforhodamine B assay; type: functional; details: SNB-75, 48 h
Hs-578T = assay: Antiproliferative activity against human Hs578T cells assessed as growth inhibition after 48 hrs by sulforhodamine B assay; type: functional

Structure (SMILES) | GI50 (HCT-15) | GI50 (TK-10) | fold change (FC) (HCT-116) | GI50 (LOX IMVI) | hemolysis at 0.5 h, 2500 µM [1] | GI50 (UACC-257) | fold change (FC) [2] | GI50 (OVCAR-3) | GI50 (HCC 2998) | GI50 (U-251) | GI50 (RXF 393) | pIC50 (K562) | GI50 (KM12) | Activity (Erythrocyte [3]) | GI50 (OVCAR-4) | GI50 (A498) | GI50 (PC-3) | GI50 (MOLT-4) | GI50 (BT-549) | GI50 (NCI/ADR-RES) | further results
COc1cc(-c2ccc(-c3ccc(C(=N)N)s3)s2)cc(OC)c1OC | 1910 nM | 2700 nM | 2.67 | 1610 nM | 11.3% | 2220 nM | 0.7 | 2220 nM | 1760 nM | 1990 nM | 1660 nM | 5.95 | 1730 nM | Non-Toxic | 1820 nM | 2.25 µM | 1770 nM | 2400 nM | 1770 nM | 3440 nM | GI50 (T47D): 1700 nM; inhibition [4]: 64.1%; GI50 (MDA-MB-468): 1820 nM; GI50 (NCI-H23): 2610 nM; GI50 (OVCAR-8): 2620 nM; GI50 (HOP-62): 1970 nM; GI50 (SF-539): 1580 nM; GI50 (HOP-92): 1140 nM; GI50 (HT-29): 1240 nM; pIC50 (WI-38): 4.18; GI50 (UO-31): 1740 nM; GI50 (A549): 2140 nM; Activity (Erythrocyte [5]): Non-Toxic; GI50 (CAKI-1): 1700 nM; GI50 (SR): 1830 nM; GI50 (SNB-75): 1500 nM
N=C(N)c1ccc(-c2ccc(-c3ccc(Cl)cc3)s2)s1 | 1200 nM | 1960 nM | 3 | 1310 nM | 14.3% | 2780 nM | 0.8 | 1740 nM | 1570 nM | 1830 nM | 1710 nM | 6.17 | 1690 nM | Non-Toxic | 1670 nM | 13 µM | 1860 nM | 1780 nM | 2110 nM | 1850 nM | GI50 (Hs-578T): 2140 nM; GI50 (T47D): 1550 nM; inhibition [4]: 72.9%; GI50 (MDA-MB-468): 1980 nM; GI50 (NCI-H23): 1620 nM; GI50 (OVCAR-8): 2480 nM; GI50 (HOP-62): 1750 nM; GI50 (SF-539): 1630 nM; GI50 (HOP-92): 1810 nM; GI50 (HT-29): 1430 nM; pIC50 (WI-38): 4.16; GI50 (UO-31): 1750 nM; GI50 (A549): 2110 nM; Activity (Erythrocyte [5]): Non-Toxic; GI50 (CAKI-1): 1610 nM; GI50 (SR): 320 nM; GI50 (SNB-75): 1490 nM
